The test system of this test is NDM-1 Kp. Briefly: LD90 NDM-1 Kp pneumonia murine model, survival. In kind it is in vivo, Balb/c mice. The note with it: colistin 20 or 1.25 mg/kg/day, days 4 and 5 PI. From the text: To establish the optimal CST route, timing, and dosage regimen against MDR NDM-1 Kp-induced pneumonia, Balb/c mice (n=10-20 mice/gp) were infected with an i.n. LD90 and treated at various times and doses as depicted in Table 1. Doses included i.n. and/or i.p. single rCST9, rCSTC or a combination of rCST9 and rCSTC. Mice that were infected with NDM-1 Kp but were not treated served as controls. rCST treatments by routes, doses, or as a combined therapy were studied to select an optimal regimen.
Evaluate optimal timing and dosage of rCST-9 and/or PEG-rCST9 administration post-infection. Balb/c mice (n=10-20 mice/gp) were intranasally (i.n.) infected with approximately 1.82×10^8 CFU/mouse of Kp 2146 (as established hereinabove) then treated i.n. or i.p. with rCST9, human recombinant cystatin C (rCSTC) or a combination of rCST9 and rCSTC as depicted in Table 1. Kp infected alone served as controls. […] Therefore, as a comparative control to rCST9, the inventors evaluated the effectiveness of rCSTC against pneumonia using the same doses of 50 and/or 500 pg/mouse.
The potential for rCST9/rCSTC treatment to extend the period before successful antibiotic intervention was initiated was determined. For these evaluations, suboptimal doses of colistin were used to determine the extent of protection afforded by rCSTs as well as to minimize side effects/toxicity caused by this antibiotic (n=10 mice/gp). Doses, timing, and route of colistin were chosen based on efficacy studies of colistin in a mouse model of severe, established MDR pneumonia or a very low dose of colistin then adjusted to suboptimal levels for this study. LD90 NDM-1 Kp-challenged mice were treated with the rCST9/rCSTC 3 d i.p. treatment and then given 2 doses of colistin at 20 mg/kg/day or 1.25 mg/kg/day on day 4 and 5 PI.
Mouse model of pneumonia and CST treatments. Eight-week old female Balb/c mice weighing between 21 and 24 grams (Jackson Laboratories) were housed in an Association for Assessment and Accreditation for Laboratory Animal Care (AAALAC)-approved housing facility and permitted to adjust to their environment for 7 d prior to procedures, receiving free access to food and water throughout the study. All procedures were approved by the University of Texas Medical Branch IACUC and performed humanely with minimal suffering. […] One hour PI, mice were administered an i.n. dose of rCST9/rCSTC (50 pg of each) and then, this group of mice was given an i.p. injection of rCST9/rCSTC (500 pg of each) 3 d PI. A parallel group of infected mice received only a single i.p. dose of rCST9/rCSTC, PEG-rCST9/rCSTC (500 pg of each), or PEG-rCST9 (500 pg) alone 3 d PI. NDM-1-Kp infected mice alone or uninfected mice served as controls. Survival was observed up to 15 days post treatment. Additional groups (n=4 mice/group) of infected and CST-treated mice were euthanized at selected time points (24 h, 72 h, 5 and/or 10 d PI) to harvest lungs. Additional groups were treated with i.n. rCSTs (50 pg of each) as described above but they were euthanized at 30 min, 1 h and 3 h to collect lungs for the quantification of lipid peroxidase by-product, known as malondialdehyde (MDA), as described below.
Additional groups of mice (n=15 mice/group) were treated with the optimal CST treatment regimens of an i.n. dose of rCST9/rCSTC (50 pg of each), followed by an i.p. injection of rCST9/rCSTC (500 pg of each) 3 d PI or the single i.p. dose of rCST9/rCSTC (500 pg of each). At 4 d PI, mice were given 2 separate i.p. injections of colistin (JHP Pharmaceuticals, LLC; colistimethate sodium; 20 mg/kg/mouse or 1.25 mg/kg/day) 8 h apart for 2 d.

1 substance from patent US12053511B2, “Cystatin C and Cystatin 9 to treat gut inflammation caused by thermal injury” (priority 2016, dated 2024) can be followed below.

With colistin [reference compound], the “survival protection compared to rCST monotherapy” value is given as “neither of the antibiotic doses surpassed protection afforded by the rCST monotherapy”.
